The source of these data is patent US12459929B2 (Carmot Therapeutics Inc., priority 2021, dated 2025).

For the first test, the system named is cynomolgus monkeys (Macaca fascicularis). Nature of the test: Intravenous glucose tolerance test (IVGTT) in cynomolgus monkeys. The format is in vivo. The settings on record: fasted, test article 6 mg/mL IV bolus 1-6 min before IV glucose 0.5 g/kg, plasma insulin 0-60 min, FIG. 1. As for the experimental part: Intravenous Glucose Tolerance Test (IVGTT) in Cynomolgus Monkeys
Aged ([…]) cynomolgus monkeys (Macaca fascicularis; N=4-5/test article) were fasted overnight and anesthetized with ketamine prior to the intravenous glucose tolerance test (IVGTT). The test articles were formulated at 6 mg/mL in vehicle (5% polyethylene glycol 400: 95% (12% (w/v) sulfobutylether-β-cyclodextrin in deionized water) (v/v)]) and administered by intravenous bolus into a peripheral vein 1-6 minutes prior to the IVGTT. The IVGTT was initiated by administration of an IV bolus of glucose (0.5 g/kg as a 50% glucose solution). Blood samples were collected from a peripheral vein 0, 1, 3, 5, 10, 20, 40 and 60 minutes upon completion of the IV bolus glucose injection. The blood samples were collected directly into potassium ethylene diamine tetra-acetic acid tubes and plasma separated by centrifugation at 2,500 g for 10 minutes within 30 minutes of collection. The plasma from all time points was analyzed for insulin concentrations (μU/mL) using a Cobas e411 Immunology analyzer. Insulin area-under-the-curve (AUC) was calculated using GraphPad Prism software (v 9).
As for `CCn1cncc1Cn1c(CN2CCC(Oc3ccnc(COc4ccc(Cl)cc4Cl)c3)CC2)nc2ccc(C(=O)O)cc21` [Example 145, 2-((4-((2-((2,4-Dichlorophenoxy)methyl)pyridin-4-yl)oxy)piperidin-1-yl)methyl)-1-((1-ethyl-1H-imidazol-5-yl)methyl)-1H-benzo[d]imidazole-6-carboxylic acid], the “insulin secretion / insulin AUC” value is “an increase in insulin secretion was observed”. Regarding `C[C@H]1C[C@@H](Oc2ccnc(COc3ccc(C#N)cc3F)n2)CCN1Cc1nc2ccc(C(=O)O)cc2n1C[C@@H]1CCO1` [Example 313, 2-(((2S,4S)-4-((2-((4-Cyano-2-fluorophenoxy)methyl)pyrimidin-4-yl)oxy)-2-methylpiperidin-1-yl)methyl)-1-(((S)-oxetan-2-yl)methyl)-1H-benzo[d]imidazole-6-carboxylic acid], the “insulin secretion / insulin AUC” value is “an increase in insulin secretion was observed”. On to `O=C(O)c1ccc2nc(CN3CCC(Oc4ccnc(COc5ccc(C(F)(F)F)cc5F)n4)CC3)n(C[C@@H]3CCO3)c2c1` [Compound 338], for which the “insulin secretion / insulin AUC” value is recorded as “an increase in insulin secretion was observed”. With `C[C@H]1C[C@@H](Oc2ccnc(COc3ccc(F)cc3C#N)n2)CCN1Cc1nc2ccc(C(=O)O)cc2n1C[C@@H]1CCO1` [Example 355, 2-(((2S,4S)-4-((2-((2-cyano-4-fluorophenoxy)methyl)pyrimidin-4-yl)oxy)-2-methylpiperidin-1-yl)methyl)-1-(((S)-oxetan-2-yl)methyl)-1H-benzo[d]imidazole-6-carboxylic acid], the “insulin secretion / insulin AUC” value is “an increase in insulin secretion was observed”.

Take `CCn1cncc1Cn1c(CN2CCC(Oc3ccnc(COc4ccc(Cl)cc4C#N)c3)CC2)nc2ccc(C(=O)O)cc21` [Compound 171, 2-{[4-({2-[(4-chloro-2-cyanophenoxy)methyl]pyridin-4-yl}oxy)piperidin-1-yl]methyl}-1-[(1-ethyl-1H-imidazol-5-yl)methyl]-1H-1,3-benzodiazole-6-carboxylic acid]: the “insulin secretion / insulin AUC” value is on record as “an increase in insulin secretion was observed”. `O=C(O)c1ccc2nc(CN3CCC(Oc4ccnc(COc5ccc(F)cc5Cl)n4)CC3)n(C[C@@H]3CCO3)c2c1` [Compound 326]: the “insulin secretion / insulin AUC” value is reported as “an increase in insulin secretion was observed”.

The next test deals with T1, human GLP-1 receptor (Homo sapiens, UniProt P43220).
T1 construct: expressed in transfected cells
T1 sequence (P43220 24-463): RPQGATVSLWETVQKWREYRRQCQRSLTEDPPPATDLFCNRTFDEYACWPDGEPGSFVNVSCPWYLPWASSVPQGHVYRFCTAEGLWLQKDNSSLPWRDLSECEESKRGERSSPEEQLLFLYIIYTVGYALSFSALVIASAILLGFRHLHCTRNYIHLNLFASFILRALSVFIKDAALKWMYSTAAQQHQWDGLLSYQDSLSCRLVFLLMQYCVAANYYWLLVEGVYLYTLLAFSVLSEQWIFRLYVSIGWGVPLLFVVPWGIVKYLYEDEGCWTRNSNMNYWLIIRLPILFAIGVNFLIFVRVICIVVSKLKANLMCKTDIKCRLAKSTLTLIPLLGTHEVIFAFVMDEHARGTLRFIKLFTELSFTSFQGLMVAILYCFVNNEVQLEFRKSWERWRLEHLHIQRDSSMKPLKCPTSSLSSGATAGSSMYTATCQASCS
In words: GLP-1R cAMP assay (HitHunter cAMP accumulation). It counts as cell-based. The settings on record: CHO cells stably overexpressing human GLP-1 receptor, 30 min, 20-point dose response in triplicate. The method, then:
CAMP accumulation was measured in Chinese hamster ovary (CHO) cells stably overexpressing the human GLP-1 receptor using the HitHunter CAMP Assay for Small Molecules Kit (Eurofins). Briefly, cells were grown in Ham's F12 Nutrient Mix with 10% FBS, and lifted with Cell Dissociation Buffer, Enzyme free, PBS based (ThermoFisher). […] The anti-cAMP antibody reagent was then added to cells at a 1:2 ratio and 5 μL of mixture was seeded in 384-well small volume white assay plates, at 10,000 cells/well. Cells were then treated with 50 nL compound using an ECHO 550 acoustic dispenser (Labcyte) in a 20-point dose response format in triplicate for 30 min. Cells were then lysed, and detection reagents added according to the manufacturer's protocol. After overnight incubation, luminescence was measured using a Perkin Elmer Envision plate reader. Dose response curves were analyzed using GraphPad Prism 9.0.
As usually defined, the EC50 is the concentration that produces a half-maximal response. A high value points to a need for much substance. Regarding `O=C(O)c1ccc2nc(CN3CCC(Nc4ccnc(COc5ccc(Cl)cc5F)n4)CC3)n(C[C@@H]3CCO3)c2c1` [Example 381, (S)-2-((4-((2-((4-Chloro-2-fluorophenoxy)methyl)pyrimidin-4-yl)amino)piperidin-1-yl)methyl)-1-(oxetan-2-ylmethyl)-1H-benzo[d]imidazole-6-carboxylic acid], the EC50 was < 50 nM. Consider `CN(c1ccnc(COc2ccc(Cl)cc2F)n1)C1CCN(Cc2nc3ccc(C(=O)O)cc3n2C[C@@H]2CCO2)CC1` [Compound 382, 2-{[4-({2-[(4-chloro-2-fluorophenoxy)methyl]pyrimidin-4-yl}(methyl)amino)piperidin-1-yl]methyl}-1-{[(2S)-oxetan-2-yl]methyl}-1H-1,3-benzodiazole-6-carboxylic acid], for which the EC50 was < 50 nM.

As to `O=C(O)c1ccc2nc(CN3CCC(Oc4cccc(COc5ccc(F)cc5Cl)c4)CC3)n(C[C@@H]3CCO3)c2c1` [Compound 207], the EC50 was < 50 nM.

For the molecule `N#Cc1ccc(OCc2nccc(OC3C[C@H]4CC[C@@H](C3)N4Cc3nc4ccc(C(=O)O)cc4n3C[C@@H]3CCO3)n2)c(F)c1` (single isomer, unassigned) [Compound 488], the concentration giving a half-maximal response (EC50) fell in the range of 50 to 500 nM. For `CCn1cncc1Cn1c(CN2CCC([C@H](F)c3cccc(COc4ccc(Cl)cc4C#N)c3)CC2)nc2ccc(C(=O)O)cc21` (single isomer, unassigned) [Example 263], the EC50 is < 50 nM.

`CCn1cncc1Cn1c(CN2CCC([C@@H](F)c3cccc(COc4ccc(Cl)cc4C#N)c3)CC2)nc2ccc(C(=O)O)cc21` (single isomer, unassigned) [Example 260]: the concentration giving a half-maximal response (EC50) is < 50 nM.
